Measured values published in patent publication US10420761B2, “Allosteric inhibitors of thymidylate synthase” (UNIVERSITY OF FLORIDA RESEARCH FOUNDATION, INCORPORATED, priority 2013, dated 2019).
Read-outs that look alike come from different tables or passages of the source.

Assays:
[1] = test system: small cell lung cancer cell line H1607; assay: MTS cell viability assay, H1607; assay type: cell-based; conditions: Homo sapiens, SCLC, 72-hour incubation, unit inferred
Method: (§1) Antiproliferative effects of 27 novel TS inhibitors were tested by MTS assay (Promega) in human cancer cell lines representing several major tumor types known to overexpress TS including lung, cervical, pancreatic and hematopoietic tumors. Six compounds (S, U, P, M, G and J) reduced cell viability by more than 40% in both human cervical cancer HeLa (FIG. 6) and myelogenous leukemia K562 cell lines (FIG. 7).
(§2) Complete dose response relationships for five most promising compounds (P, U, S, M and G) have been established in pancreatic neuroendocrine cancer, pancreatic ductal cancer and small cell lung cancer cell lines (Table 3). […] In pancreatic neuroendocrine tumors Bon1 and CM—the range was larger with GI50 values within 0.1-100 μM (FIGS. 10, 11). Such discrepancy in response to drugs between Bon1 and CM cells can be explained at least in part by different tumor type of these cells. CM cells were derived from insulinoma, a typical beta cell tumor that secrets insulin while Bon cells are carcinoid tumors derived from lymph nodes that produce serotonin.
(§3) 27 top scoring compounds that were identified by in silico screening were tested in human cancer cell lines. Cancer cell lines used for inhibitor testing were maintained under 70% confluency in appropriate cell culture medium (typically DMEM, supplemented with 10% FBS, and 1% pen-strep). Small molecule compounds were obtained from NCI DTP, resuspended in DMSO to generate 50 mM stocks and stored in the dark. In all experiments, fresh compound preparations were used whenever possible and no more than 2 freeze-thaw cycles were allowed for all drug tested. Cells were seeded in 96-well plates in quadruplicates (4 wells/condition) at 4000 cells/well. Compound solutions were freshly prepared in the appropriate cell culture medium and were added the following morning to the cells. After 72-hour incubation with the compound, cell proliferation was measured by MTS assays (Promega) and compared to that of the untreated cells or control drug, such as 5-FU or pemetrexed. Dose-response parameters were determined by plotting percent cell proliferation after treatment from at least eight different compound concentrations and by using non-linear regression fit (4-parameter dose-response) in Sigmaplot. All results shown are representative of at least 3 independent experiments.

[2] = test system: small cell lung cancer cell line H1048; assay: MTS cell viability assay, H1048; assay type: cell-based; conditions: Homo sapiens, NCI-H1048
Method: as §1, §2, §3

[3] = test system: pancreatic neuroendocrine cell line CM (insulinoma); assay: MTS cell viability assay, CM; assay type: cell-based
Method: as §1, §2, §3

[4] = test system: pancreatic neuroendocrine cell line Bon1; assay: MTS cell viability assay, Bon-1; assay type: cell-based
Method: as §1, §2, §3

[5] = test system: pancreatic ductal adenocarcinoma cell line Miapaca-2; assay: MTS cell viability assay, MiaPaca-2; assay type: cell-based; conditions: Homo sapiens, MIA PaCa-2, PDAC, 72-hour incubation, unit inferred
Method: as §1, §2, §3

[6] = test system: pancreatic ductal adenocarcinoma cell line Panc-1; assay: MTS cell viability assay, Panc-1; assay type: cell-based; conditions: Homo sapiens, PDAC, 72-hour incubation, unit inferred
Method: as §1, §2, §3

human cancer cell lines = assay: MTS cell viability assay, statements over several cell lines; assay type: cell-based; conditions: for GI50: Homo sapiens
Method: as §1, §2
(§4) We also tested the compounds S, U and P in mouse histiocytic sarcoma cell line that was derived from genetically engineered mouse model with p16 deletion and activated hTS overexpression. […] Dose-response curves and GI50 values for all compounds tested can be found in Table 3 and FIGS. 8-13.
as §3

[7] = test system: mouse histiocytic sarcoma cell line 5278mHS (p16 deletion, activated hTS); assay: MTS cell viability assay, mouse histiocytic sarcoma; assay type: cell-based
Method: as §4, §3

in vivo = assay: in vivo
Method: (§5) SCID immunodeficient mice were i.p. injected daily for 3 weeks and kept under observation for one additional week. Animals' weights were measured daily and the data is presented as the percentage of weight change from day 1 of treatment to day 28 at the termination of the experiment (Table 4). FVB.129 immunocompetent mice were i.p. injected daily for 2 weeks and kept under observation for one additional week. Animals' weights were measure daily and the data is presented as the percentage of weight change from day 1 of treatment to day 21 at the termination of the experiment (Table 5).
as §5, with “The SCID immunodeficient” for “SCID immunodeficient”, “the data are presented as” for “the data is presented as”, “(Table 4). […] The FVB.129 immunocompetent” for “(Table 4). FVB.129 immunocompetent”, “weights were measured daily and” for “weights were measure daily and”

[8] = assay type: in vivo
Method: as §5, with “To establish the maximum tolerated dose (MTD) for most promising new inhibitors, both immunodeficient SCID and immunocompetent FVB.129 mice were treated daily with compound S and methylated version of compound S at 12.5, 50, and 100 MKG (mg/kg) by i.p. injection (Tables 4 and 5). SCID” for “SCID”
The SCID immunodeficient mice were i.p. injected daily for 3 weeks and kept under observation for one additional week. Animals' weights were measured daily and the data are presented as the percentage of weight change from day 1 of treatment to day 28 at the termination of the experiment (Table 4). The MTD for SCID mice for both compounds was 50 MKG. The FVB.129 immunocompetent mice were i.p. injected daily for 2 weeks and kept under observation for one additional week. Animals' weights were measured daily and the data are presented as the percentage of weight change from day 1 of treatment to day 21 at the termination of the experiment (Table 5). […] Thus, we have identified a derivative of compounds S that is less toxic to immunocompetent FVB.129 mice.

[9] = SCLC, 72-hour incubation, MTS, unit inferred, read-out: GI50 H1048
[10] = PNET, 72-hour incubation, MTS, unit inferred, read-out: GI50 CM
[11] = PNET, 72-hour incubation, MTS, unit inferred, read-out: GI50 Bon-1
[12] = NCI-H1048, range over small cell lung cancer cell lines H1607 and H1048 and the five compounds, read-out: GI50 values in the range
[13] = range over pancreatic ductal adenocarcinoma cell lines Miapaca-2 and Panc-1 and the five compounds, read-out: GI50 values between
[14] = mouse histiocytic sarcoma cell line, range over compounds S, U and P, read-out: GI50 values from
[15] = mouse histiocytic sarcoma, MTS, unit inferred, read-out: GI50 5278mHS
[16] = up to, over the tested cell lines

GI50 [1] [µM]	GI50 [2, 9] [nM]	GI50 [3, 10] [µM]	GI50 [5] [µM]	GI50 [6] [µM]	GI50 (human cancer cell lines; [12]) [µM]	GI50 (human cancer cell lines; [13]) [µM]	GI50 [7, 14] [nM]	GI50 [7, 15] [nM]	Structure (SMILES)	GI50 [4, 11] [µM]	GI50 ([2]; H1048 (SCLC), read-out: GI50) [nM]	GI50 ([3]; CM (insulinoma), read-out: GI50) [µM]	GI50 ([4]; Bon1 cells, read-out: GI50) [µM]	fold lower GI50 than 5-FU (human cancer cell lines; [16])	fold lower GI50 than pemetrexed (human cancer cell lines; [16])	animal found dead, D2 (in vivo; SCID mice, 100 MKG i.p. daily, single mice)	MTD at 3 weeks (in vivo; SCID, mouse, in vivo, ip, MTD) [mg/kg]	animal found dead, D6 ([8]; FVB.129 mice, 50 MKG i.p. daily, single mice)	animal found dead, D5 ([8]; FVB.129 mice, 100 MKG i.p. daily, single mice)	day after treatment at which animals died ([8]; FVB.129, mouse, in vivo, ip, 2 weeks) [days]
2.6	16000	29	24	15	0.09 to 29	0.5 to 24			COc1ccc(Cc2c[nH]cc3c(=O)c(OC)ccc2-3)cc1O [Compound M, 4-(3-hydroxy-4-methoxybenzyl)-7-methoxyisoquinolin-8(2H)-one]	26										
8.6	16000	16	7	8.4	0.09 to 29	0.5 to 24	400 to 20000	2300	O[C@@H](c1cc(C(F)(F)F)nc2c(C(F)(F)F)cccc12)C1CCCCN1 (stereo partly drawn) [P, (1S)-(2,8-bis(trifluoromethyl)quinolin-4-yl)(piperidin-2-yl)methanol]	7.6										
> 200	130	0.087	> 200	> 200					Nc1nc2[nH]cc(CCc3ccc(C(=O)N[C@@H](CCC(=O)O)C(=O)O)cc3)c2c(=O)[nH]1 [Pemetrexed, pemetrexed, reference compound]	> 200										
2.5	3100	13	12	1.3	0.09 to 29	0.5 to 24	400 to 20000	21000	CCN(CC)C1=CC(=O)/C(=N/Nc2cc(Br)ccn2)C=C1 [U, (E)-6-(2-(4-bromopyridin-2-yl)hydrazono)-3-(diethylamino)cyclohexa-2,4-dienone]	2.4										

More lines, now with the values behind:

Structure (SMILES)	GI50 [1] [µM]	GI50 [2, 9] [nM]	GI50 [3, 10] [µM]	GI50 [5] [µM]	GI50 [6] [µM]	GI50 (human cancer cell lines; [12]) [µM]	GI50 (human cancer cell lines; [13]) [µM]	GI50 [7, 14] [nM]	GI50 [7, 15] [nM]	GI50 [4, 11] [µM]	GI50 ([2]; H1048 (SCLC), read-out: GI50) [nM]	GI50 ([3]; CM (insulinoma), read-out: GI50) [µM]	GI50 ([4]; Bon1 cells, read-out: GI50) [µM]	fold lower GI50 than 5-FU (human cancer cell lines; [16])	fold lower GI50 than pemetrexed (human cancer cell lines; [16])	animal found dead, D2 (in vivo; SCID mice, 100 MKG i.p. daily, single mice)	MTD at 3 weeks (in vivo; SCID, mouse, in vivo, ip, MTD) [mg/kg]	animal found dead, D6 ([8]; FVB.129 mice, 50 MKG i.p. daily, single mice)	animal found dead, D5 ([8]; FVB.129 mice, 100 MKG i.p. daily, single mice)	day after treatment at which animals died ([8]; FVB.129, mouse, in vivo, ip, 2 weeks) [days]
O=c1[nH]cc(F)c(=O)[nH]1 [Compound 5-FU, 5-fluorouracil, reference compound]	36	2300	16	8.1	11					7.6										
CN(Cc1ccoc1)Cc1nnc(SCCOc2ccccc2)n1C [Compound G, 1-(furan-3-yl)-N-methyl-N-((4-methyl-5-((2-phenoxyethyl)thio)-4H-1,2,4-triazol-3-yl)methyl)methanaminium]	29	4300	32	9.7	15	0.09 to 29	0.5 to 24			0.39										
CCc1nc(N)nc(N)c1-c1ccc(N(C)Cc2ccccc2)c([N+](=O)[O-])c1 [Compound S, 5-[4-[benzyl(methyl)amino]-3-nitrophenyl]-6-ethylpyrimidine-2,4-diamine]	8.2	96	0.093	0.48	0.93	0.09 to 29	0.5 to 24	400 to 20000	420	100	96	0.093	100	up to 169 fold	up to 416 fold	FDN	≥ 50	FDN	FDN	6
